Data on four compounds can be found in PMC8550792, “Evolution of kinase polypharmacology across HSP90 drug discovery” (Cell Chemical Biology, 2021).

What all share (assay): biochemical
Holding throughout (format): biochemical

Experiment [1] addresses T1, 382 unique human kinases (Homo sapiens, UniProt P22607, V555M).
T1 construct: purchased Reaction Biology (HotSpot contract assay)
The note with it: FGFR3 (V555M), 10 uM; for remaining activity at 10 µM: read-out: % Enzyme Activity (relative to DMSO controls).

In experiment [2] the target is T2, 382 unique human kinases (Homo sapiens, UniProt Q15759).
T2 construct: purchased Reaction Biology (HotSpot contract assay)
T2 sequence (Q15759 whole entry): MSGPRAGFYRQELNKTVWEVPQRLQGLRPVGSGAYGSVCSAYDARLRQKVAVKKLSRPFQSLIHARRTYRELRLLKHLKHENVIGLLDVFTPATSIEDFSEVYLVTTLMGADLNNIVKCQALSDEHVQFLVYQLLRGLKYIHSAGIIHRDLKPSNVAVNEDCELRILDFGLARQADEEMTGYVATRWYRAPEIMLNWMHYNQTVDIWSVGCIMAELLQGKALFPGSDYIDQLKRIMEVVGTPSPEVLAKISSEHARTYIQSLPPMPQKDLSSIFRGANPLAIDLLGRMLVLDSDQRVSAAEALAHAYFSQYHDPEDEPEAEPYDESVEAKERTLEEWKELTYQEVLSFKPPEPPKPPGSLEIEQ
As to conditions: kinase P38b/MAPK11, compound 10 uM; for remaining activity at 10 µM: read-out: % Enzyme Activity (relative to DMSO controls).

Experiment [3] addresses T3, 382 unique human kinases (Homo sapiens, UniProt Q8IYT8).
T3 construct: purchased Reaction Biology (HotSpot contract assay)
T3 sequence (Q8IYT8 1-1036): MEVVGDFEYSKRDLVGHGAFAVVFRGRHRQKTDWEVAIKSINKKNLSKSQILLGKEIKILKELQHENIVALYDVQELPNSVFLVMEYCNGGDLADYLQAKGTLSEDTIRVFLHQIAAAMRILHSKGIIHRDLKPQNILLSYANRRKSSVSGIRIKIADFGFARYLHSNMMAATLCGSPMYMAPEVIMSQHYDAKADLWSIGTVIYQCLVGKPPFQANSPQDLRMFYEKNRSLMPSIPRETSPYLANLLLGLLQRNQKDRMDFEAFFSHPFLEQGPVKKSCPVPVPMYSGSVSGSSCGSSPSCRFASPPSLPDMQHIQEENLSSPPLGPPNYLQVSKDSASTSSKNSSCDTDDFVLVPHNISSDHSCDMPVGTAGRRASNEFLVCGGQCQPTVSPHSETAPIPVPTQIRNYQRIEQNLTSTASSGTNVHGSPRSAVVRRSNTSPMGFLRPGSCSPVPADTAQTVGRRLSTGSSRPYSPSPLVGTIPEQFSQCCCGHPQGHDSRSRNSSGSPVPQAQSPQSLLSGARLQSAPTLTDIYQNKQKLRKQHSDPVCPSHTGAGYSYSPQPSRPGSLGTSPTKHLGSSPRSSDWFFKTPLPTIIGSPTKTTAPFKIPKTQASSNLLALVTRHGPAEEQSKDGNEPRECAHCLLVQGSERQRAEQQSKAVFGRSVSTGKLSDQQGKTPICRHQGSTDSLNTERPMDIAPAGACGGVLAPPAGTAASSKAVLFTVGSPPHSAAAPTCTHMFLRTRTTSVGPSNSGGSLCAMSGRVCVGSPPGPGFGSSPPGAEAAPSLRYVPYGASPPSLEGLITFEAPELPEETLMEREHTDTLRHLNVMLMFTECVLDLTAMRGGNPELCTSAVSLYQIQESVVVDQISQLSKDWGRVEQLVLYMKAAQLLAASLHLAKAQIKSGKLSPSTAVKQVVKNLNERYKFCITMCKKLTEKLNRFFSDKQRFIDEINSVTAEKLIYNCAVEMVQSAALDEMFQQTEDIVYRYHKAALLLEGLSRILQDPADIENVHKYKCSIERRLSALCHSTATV
As to conditions: ULK2, 10 uM; for remaining activity at 10 µM: read-out: % Enzyme Activity (relative to DMSO controls).

Experiment [4] concerns the target T4, 382 unique human kinases (Homo sapiens, UniProt Q9NZJ5).
T4 construct: purchased Reaction Biology (HotSpot contract assay)
T4 sequence (Q9NZJ5 30-1116): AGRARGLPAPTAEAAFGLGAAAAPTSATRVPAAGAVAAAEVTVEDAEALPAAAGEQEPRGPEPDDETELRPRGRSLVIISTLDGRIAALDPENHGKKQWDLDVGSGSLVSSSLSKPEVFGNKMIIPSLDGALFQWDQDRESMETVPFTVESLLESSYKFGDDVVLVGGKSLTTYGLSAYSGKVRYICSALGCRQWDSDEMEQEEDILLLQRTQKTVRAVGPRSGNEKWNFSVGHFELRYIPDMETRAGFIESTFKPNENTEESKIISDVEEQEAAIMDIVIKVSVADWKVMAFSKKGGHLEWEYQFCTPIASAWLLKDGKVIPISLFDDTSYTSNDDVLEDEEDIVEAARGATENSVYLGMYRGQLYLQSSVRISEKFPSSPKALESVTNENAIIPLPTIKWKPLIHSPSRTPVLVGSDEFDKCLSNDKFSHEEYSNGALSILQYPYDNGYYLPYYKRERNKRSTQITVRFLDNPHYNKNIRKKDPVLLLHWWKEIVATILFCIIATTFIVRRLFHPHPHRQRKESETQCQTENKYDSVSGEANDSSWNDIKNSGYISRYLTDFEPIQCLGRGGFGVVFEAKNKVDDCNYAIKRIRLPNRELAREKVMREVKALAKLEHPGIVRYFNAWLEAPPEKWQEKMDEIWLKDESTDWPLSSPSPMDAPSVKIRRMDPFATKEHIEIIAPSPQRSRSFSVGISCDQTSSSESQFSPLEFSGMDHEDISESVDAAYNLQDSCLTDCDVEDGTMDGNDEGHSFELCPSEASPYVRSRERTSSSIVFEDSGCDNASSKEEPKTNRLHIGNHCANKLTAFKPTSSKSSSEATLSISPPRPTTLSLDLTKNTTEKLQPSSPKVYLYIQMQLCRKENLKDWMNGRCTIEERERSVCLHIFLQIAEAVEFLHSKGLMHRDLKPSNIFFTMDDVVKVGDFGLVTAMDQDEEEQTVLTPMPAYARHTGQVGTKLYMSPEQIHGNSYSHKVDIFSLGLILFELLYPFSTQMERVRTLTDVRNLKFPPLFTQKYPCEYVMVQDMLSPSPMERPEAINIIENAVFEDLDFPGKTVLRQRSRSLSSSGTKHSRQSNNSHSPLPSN
As to conditions: EIF2AK3, 10 uM; for remaining activity at 10 µM: read-out: % Enzyme Activity (relative to DMSO controls).

The target of experiment [5] is T5, 382 unique human kinases (Homo sapiens, UniProt Q15120).
T5 construct: purchased Reaction Biology (HotSpot contract assay)
T5 sequence (Q15120 whole entry): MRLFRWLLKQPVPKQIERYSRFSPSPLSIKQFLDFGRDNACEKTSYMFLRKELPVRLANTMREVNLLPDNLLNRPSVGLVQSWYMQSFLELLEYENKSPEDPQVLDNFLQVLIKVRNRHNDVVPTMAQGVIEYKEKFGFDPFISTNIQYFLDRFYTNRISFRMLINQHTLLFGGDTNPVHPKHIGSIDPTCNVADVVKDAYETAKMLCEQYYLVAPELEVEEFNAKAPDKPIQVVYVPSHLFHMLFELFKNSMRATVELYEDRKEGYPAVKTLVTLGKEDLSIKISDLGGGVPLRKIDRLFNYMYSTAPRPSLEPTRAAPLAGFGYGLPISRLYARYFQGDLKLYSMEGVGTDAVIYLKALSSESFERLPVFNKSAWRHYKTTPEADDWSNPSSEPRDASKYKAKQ
The note with it: PDK3/PDHK3, [ATP] 30 µM, compound 10 uM; for remaining activity at 10 µM: read-out: % Enzyme Activity (relative to DMSO controls).

For experiment [6], the target named is T6, 382 unique human kinases (Homo sapiens, UniProt Q15119).
T6 construct: purchased Reaction Biology (HotSpot contract assay)
The note with it: PDK2/PDHK2, [ATP] 15 µM.

In experiment [7] the target is T7, 382 unique human kinases (Homo sapiens, UniProt P00533, DEL746-750).
T7 construct: purchased Reaction Biology (HotSpot contract assay)
As to conditions: EGFR (d746-750), 10 uM; for remaining activity at 10 µM: read-out: % Enzyme Activity (relative to DMSO controls).

In experiment [8] the target is T8, 382 unique human kinases (Homo sapiens, UniProt P78527).
T8 construct: purchased Reaction Biology (HotSpot contract assay)
T8 sequence (P78527 whole entry): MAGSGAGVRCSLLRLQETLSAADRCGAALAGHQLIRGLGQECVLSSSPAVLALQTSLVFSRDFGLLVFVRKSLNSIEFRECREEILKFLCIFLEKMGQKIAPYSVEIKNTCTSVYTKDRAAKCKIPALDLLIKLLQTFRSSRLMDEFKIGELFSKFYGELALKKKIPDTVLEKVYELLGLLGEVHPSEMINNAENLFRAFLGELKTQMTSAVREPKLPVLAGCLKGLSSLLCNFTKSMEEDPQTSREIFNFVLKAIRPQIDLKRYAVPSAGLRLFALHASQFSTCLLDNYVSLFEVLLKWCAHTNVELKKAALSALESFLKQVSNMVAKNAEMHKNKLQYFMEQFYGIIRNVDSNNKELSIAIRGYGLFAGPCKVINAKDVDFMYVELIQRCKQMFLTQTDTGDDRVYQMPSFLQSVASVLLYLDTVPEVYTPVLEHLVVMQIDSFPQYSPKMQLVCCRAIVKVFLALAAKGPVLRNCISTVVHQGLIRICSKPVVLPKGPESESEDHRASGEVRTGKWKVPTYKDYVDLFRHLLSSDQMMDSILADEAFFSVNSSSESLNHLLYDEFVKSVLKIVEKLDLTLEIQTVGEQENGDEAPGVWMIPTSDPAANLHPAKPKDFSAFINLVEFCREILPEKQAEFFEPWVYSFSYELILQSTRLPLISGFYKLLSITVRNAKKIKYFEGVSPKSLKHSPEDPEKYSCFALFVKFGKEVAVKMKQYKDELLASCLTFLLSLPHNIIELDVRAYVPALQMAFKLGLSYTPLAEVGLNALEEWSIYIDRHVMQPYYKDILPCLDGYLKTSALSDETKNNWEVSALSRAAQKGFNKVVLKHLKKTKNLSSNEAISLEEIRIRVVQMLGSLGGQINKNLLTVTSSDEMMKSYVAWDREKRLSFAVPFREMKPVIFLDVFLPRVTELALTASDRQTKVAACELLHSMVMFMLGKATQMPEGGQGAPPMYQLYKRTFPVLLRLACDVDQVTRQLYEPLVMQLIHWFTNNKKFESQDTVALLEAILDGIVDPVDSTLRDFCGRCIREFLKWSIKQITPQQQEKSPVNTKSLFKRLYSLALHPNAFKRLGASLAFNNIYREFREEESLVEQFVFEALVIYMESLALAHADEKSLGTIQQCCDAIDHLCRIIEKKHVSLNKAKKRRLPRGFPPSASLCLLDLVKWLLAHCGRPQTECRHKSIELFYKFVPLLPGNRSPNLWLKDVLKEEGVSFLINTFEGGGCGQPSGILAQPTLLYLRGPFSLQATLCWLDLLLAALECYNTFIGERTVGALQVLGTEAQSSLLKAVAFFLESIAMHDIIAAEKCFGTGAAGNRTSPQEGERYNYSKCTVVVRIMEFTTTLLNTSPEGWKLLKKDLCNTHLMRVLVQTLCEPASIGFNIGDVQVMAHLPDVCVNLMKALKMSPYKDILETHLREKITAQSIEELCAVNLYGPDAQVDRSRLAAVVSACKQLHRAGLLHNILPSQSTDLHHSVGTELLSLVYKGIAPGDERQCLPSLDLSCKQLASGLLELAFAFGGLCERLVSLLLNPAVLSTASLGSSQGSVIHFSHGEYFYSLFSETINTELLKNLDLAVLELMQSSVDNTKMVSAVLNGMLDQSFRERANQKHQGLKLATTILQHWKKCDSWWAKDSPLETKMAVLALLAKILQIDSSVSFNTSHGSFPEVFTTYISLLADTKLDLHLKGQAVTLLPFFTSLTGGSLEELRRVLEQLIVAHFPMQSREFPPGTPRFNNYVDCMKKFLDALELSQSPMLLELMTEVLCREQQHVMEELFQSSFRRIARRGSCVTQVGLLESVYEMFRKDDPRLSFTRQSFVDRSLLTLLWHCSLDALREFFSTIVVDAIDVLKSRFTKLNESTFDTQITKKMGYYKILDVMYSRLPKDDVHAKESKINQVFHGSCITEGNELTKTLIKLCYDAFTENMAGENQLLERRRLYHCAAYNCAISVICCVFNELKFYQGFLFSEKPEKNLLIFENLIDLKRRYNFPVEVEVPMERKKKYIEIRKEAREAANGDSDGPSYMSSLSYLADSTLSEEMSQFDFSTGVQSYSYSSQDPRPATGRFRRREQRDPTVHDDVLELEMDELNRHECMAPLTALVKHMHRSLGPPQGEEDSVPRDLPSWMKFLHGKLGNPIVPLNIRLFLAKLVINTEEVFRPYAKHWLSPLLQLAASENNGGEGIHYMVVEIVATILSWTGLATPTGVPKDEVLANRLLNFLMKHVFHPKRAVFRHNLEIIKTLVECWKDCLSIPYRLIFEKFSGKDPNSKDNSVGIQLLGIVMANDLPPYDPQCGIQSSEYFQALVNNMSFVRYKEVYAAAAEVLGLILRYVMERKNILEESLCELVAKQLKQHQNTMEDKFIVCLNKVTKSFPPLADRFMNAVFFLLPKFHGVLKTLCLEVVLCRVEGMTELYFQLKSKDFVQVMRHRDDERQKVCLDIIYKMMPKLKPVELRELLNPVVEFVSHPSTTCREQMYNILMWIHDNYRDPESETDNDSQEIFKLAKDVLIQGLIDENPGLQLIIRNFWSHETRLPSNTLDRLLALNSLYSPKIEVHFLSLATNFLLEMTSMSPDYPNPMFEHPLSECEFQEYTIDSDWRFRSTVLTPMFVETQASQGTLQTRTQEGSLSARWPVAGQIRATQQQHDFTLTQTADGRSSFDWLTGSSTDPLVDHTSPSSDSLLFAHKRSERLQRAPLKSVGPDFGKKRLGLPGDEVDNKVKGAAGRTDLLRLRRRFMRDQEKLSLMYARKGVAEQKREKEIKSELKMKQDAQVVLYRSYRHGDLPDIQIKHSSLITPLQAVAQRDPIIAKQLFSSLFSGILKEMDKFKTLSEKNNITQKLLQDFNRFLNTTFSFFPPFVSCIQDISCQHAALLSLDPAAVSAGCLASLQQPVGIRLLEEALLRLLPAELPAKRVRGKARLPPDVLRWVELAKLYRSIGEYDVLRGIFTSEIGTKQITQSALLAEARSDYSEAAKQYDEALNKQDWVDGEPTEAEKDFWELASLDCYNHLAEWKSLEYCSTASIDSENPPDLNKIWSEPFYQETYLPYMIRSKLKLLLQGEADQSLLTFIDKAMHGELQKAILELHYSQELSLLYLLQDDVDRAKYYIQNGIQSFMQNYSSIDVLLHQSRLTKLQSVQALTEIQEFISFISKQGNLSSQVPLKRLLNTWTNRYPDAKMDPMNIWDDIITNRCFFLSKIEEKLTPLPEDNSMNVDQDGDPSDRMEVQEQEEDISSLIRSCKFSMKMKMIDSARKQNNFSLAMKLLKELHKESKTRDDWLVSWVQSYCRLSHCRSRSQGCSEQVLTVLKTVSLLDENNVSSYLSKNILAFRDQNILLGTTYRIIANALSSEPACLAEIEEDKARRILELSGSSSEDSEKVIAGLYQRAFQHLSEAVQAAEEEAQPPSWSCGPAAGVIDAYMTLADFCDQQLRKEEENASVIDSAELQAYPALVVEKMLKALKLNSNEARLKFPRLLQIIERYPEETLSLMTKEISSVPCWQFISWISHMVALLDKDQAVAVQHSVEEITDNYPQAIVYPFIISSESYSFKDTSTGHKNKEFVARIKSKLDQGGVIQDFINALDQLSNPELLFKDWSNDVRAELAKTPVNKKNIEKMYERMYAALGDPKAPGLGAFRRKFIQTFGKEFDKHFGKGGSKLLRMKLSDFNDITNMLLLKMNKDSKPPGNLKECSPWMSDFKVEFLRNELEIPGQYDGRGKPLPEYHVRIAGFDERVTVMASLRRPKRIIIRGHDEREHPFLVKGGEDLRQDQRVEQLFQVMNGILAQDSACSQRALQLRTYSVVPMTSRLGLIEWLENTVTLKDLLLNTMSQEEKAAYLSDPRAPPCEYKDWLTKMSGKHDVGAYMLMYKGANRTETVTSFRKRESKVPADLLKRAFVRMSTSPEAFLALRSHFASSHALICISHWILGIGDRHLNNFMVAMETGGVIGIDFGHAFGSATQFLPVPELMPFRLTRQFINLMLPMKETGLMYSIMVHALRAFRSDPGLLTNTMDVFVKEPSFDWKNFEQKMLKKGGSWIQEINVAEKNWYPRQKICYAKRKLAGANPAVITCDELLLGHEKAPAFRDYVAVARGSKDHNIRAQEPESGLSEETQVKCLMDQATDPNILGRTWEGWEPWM
The note with it: DNA-PK, 10 uM; for remaining activity at 10 µM: read-out: % Enzyme Activity (relative to DMSO controls).

Setting [9] is: compound 10 uM, read-out: % Enzyme Activity (relative to DMSO controls).

Take `CC(C)c1cc(-c2n[nH]c(=O)n2-c2ccc3c(ccn3C)c2)c(O)cc1O` [Ganetespib (STA9090)]: the remaining activity at 10 µM at 382 unique human kinases [1] turned out to be 65.2%; at 382 unique human kinases [2], 108%.
For `CC(C)c1cc(-c2n[nH]c(=O)n2-c2ccc3c(ccn3C)c2)c(O)cc1O` [Ganetespib], the remaining activity at 10 µM at 382 unique human kinases [3] was 107%; at 382 unique human kinases [4], 101%; on 382 unique human kinases [5], 22.3%; at 382 unique human kinases [6] (setting [9]), 11.2%; at 382 unique human kinases [7], 91.8%; at 382 unique human kinases [8], 97.8%. Besides, the remaining activity at 1 µM at 382 unique human kinases [6] (compound 1 uM, read-out: % Enzyme Activity (relative to DMSO controls)) came to 41.9%.
For `CCNC(=O)c1noc(-c2cc(C(C)C)c(O)cc2O)c1-c1ccc(CN2CCOCC2)cc1` [Luminespib (AUY-922)], the “% Enzyme Activity (relative to DMSO controls)” value at 382 unique human kinases [1] came to 124.56%; at 382 unique human kinases [2] it was 82.81%. In addition, the values for the remaining activity at 10 µM on 382 unique human kinases [1] and at 382 unique human kinases [2] were 125% and 86.3%, respectively.
Consider `CCNC(=O)c1noc(-c2cc(C(C)C)c(O)cc2O)c1-c1ccc(CN2CCOCC2)cc1` [Luminespib], for which the “% Enzyme Activity (relative to DMSO controls)” value came out at 104.48% at 382 unique human kinases [3]; 103.58% on 382 unique human kinases [4]; 75.85% on 382 unique human kinases [5]; 20.58% on 382 unique human kinases [6] (compound 10 uM); 93.74% at 382 unique human kinases [7]; 91.21% on 382 unique human kinases [8]. The remaining activity at 10 µM turned out to be 107% on 382 unique human kinases [3]; 104% on 382 unique human kinases [4]; 76.8% on 382 unique human kinases [5]; 22.4% at 382 unique human kinases [6] (setting [9]); 94% at 382 unique human kinases [7]; 91.6% on 382 unique human kinases [8].
